What was measured:
Assay type in all cases: cell-based
ENTR indicator strains = assay: Dose response deferred antagonism assay, producer K12: average over indicators; conditions: 1.5% raffinose
Method: 1-2 producer strain colonies were transferred from a stock plate into 900 μL of suspension solution using a fresh cotton swab. Following this, suspensions were vortexed, and a sample was inoculated onto solid culture media using a fresh cotton swab. The inoculation was a streak that runs diametrically across the agar plate in a 1.5 cm wide strip. The plate was then incubated. Following incubation all visible colonies were removed by swabbing them from the agar surface. The plates were then treated with chloroform by dispensing 2 ml of chloroform onto 4 cm×4 cm piece of cloth and sealing the inverted agar plate on top for 30 minutes. The plates were then air dried for 30 minutes following chloroforming. 1-2 indicator strain colonies were then transferred from a stock plate into complementary suspension solution. […]
Each indicator streak was prepared with fresh a suspension containing cells from a corresponding stock plate containing the indicator strain of interest. […] Results were measured by qualitatively reviewing the subsequent (if any) sizes of the zones of inhibition (ZOI) of indicator strain colony growth. […]
CABCa agar plates containing various concentrations of saccharide were prepared according to the methods described in Method 1. […] Results were recorded by measuring the size of the zone of inhibition (ZOI) in mm. […]

S. pneumoniae D39 = assay: Deferred antagonism assay, producer S. salivarius M18; conditions: for Zone of inhibition S. pneumoniae D39: M18
Method: (§1) 1-2 producer strain colonies were transferred from a stock plate into 900 μL of suspension solution using a fresh cotton swab. Following this, suspensions were vortexed, and a sample was inoculated onto solid culture media using a fresh cotton swab. The inoculation was a streak that runs diametrically across the agar plate in a 1.5 cm wide strip. The plate was then incubated. Following incubation all visible colonies were removed by swabbing them from the agar surface. The plates were then treated with chloroform by dispensing 2 ml of chloroform onto 4 cm×4 cm piece of cloth and sealing the inverted agar plate on top for 30 minutes. The plates were then air dried for 30 minutes following chloroforming. 1-2 indicator strain colonies were then transferred from a stock plate into complementary suspension solution. The suspensions were then vortexed, and a sample was inoculated onto the same agar surface. These samples were streaked in a perpendicular direction to the initial producer streak.
(§2) Each indicator streak was prepared with fresh a suspension containing cells from a corresponding stock plate containing the indicator strain of interest. Indicator strains suspension samples were transferred using a fresh cotton swab. Results were measured by qualitatively reviewing the subsequent (if any) sizes of the zones of inhibition (ZOI) of indicator strain colony growth. A positive result is when there is a distinctive reduction or complete inhibition of indicator colony growth on the culture medium.
(§3) CABCa agar plates containing various concentrations of saccharide were prepared according to the methods described in Method 1. Producer strains were transferred from stock agar plates into 900 μL THB using a fresh cotton swab. A plastic spread plater was cut to approximately 1.2 cm width and then dipped into ethanol and left to air dry to ensure sterility. A 100 μL sample of the producer strain suspension was then dispensed onto the agar surface in a straight line running diametrically across the agar surface in (approximately) 20 μL spots. The spots were spaced approximately 1.5 cm apart from each other. The plastic spreader was then used to evenly distribute the spots across the agar surface in a 1.5 cm wide strip. This step was taken to ensure an even producer streak was inoculated onto the agar surface and provided an approximate measure of the initial inoculum concentration. Separate plastic spreaders were used for samples containing different producer strains. The samples were left to soak into the agar surface until there was no visible liquid remaining on the agar surface (approximately 20 minutes). Following producer streak preparations, the deferred antagonism assay protocol was followed as per Method 2. Results were recorded by measuring the size of the zone of inhibition (ZOI) in mm.
(§4) A dose response assay was carried out according to method 3 above, except a 1.2 cm streak was used. For the individual saccharide testing the pH of the producer streak was adjusted after the growth of producer to change the acidic conditions.
(§5) A deferred antagonism assay was conducted using K12 or M18 raw ingredient suspended in Todd Hewitt broth (THB). This was spread as a 1.2 cm streak containing approximately 1-2×10^6 cfu down the middle of a CABCa control or CABCa galactose supplemented test plate. After 18 hrs growth at 37° C. with 5% CO2, bacterial growth was removed, and the pH of the agar in the initial streak was measured and adjusted to a pH of 6.5-7.5 using 0.5M sodium carbonate pH11 before sterilizing the agar surface using chloroform vapor. Bacterial test strains were suspended in i-THB before being swabbed across the plates perpendicular to the initial streak. Plates were incubated for a further 18 hrs incubation at 37° C. with 5% CO2 before measuring (mm) any zones of inhibition for each test strain, […]

S. aureus A222 = assay: as above; conditions: for Zone of inhibition S. aureus A222: M18
Method: as §1, §2, §3, §4, §5

S. mutans OMZ175 = assay: as above; conditions: for Zone of inhibition S. mutans OMZ175: M18
Method: as §1, §2, §3, §4, §5

S. constellatus T29 = assay: as above; conditions: for Zone of inhibition S. constellatus T29: M18
Method: as §1, §2, §3, §4, §5

[1] = test system: S. saprophyticus ATCC 15305; assay: as above; conditions: for Zone of inhibition S. saprophyticus ATCC 15305: M18
Method: as §1, §2, §3, §4, §5

[2] = 1.25, 2.5, 5% w/v raffinose added

Structure (SMILES): OC[C@H]1O[C@H](OC[C@H]2O[C@H](O[C@]3(CO)O[C@H](CO)[C@@H](O)[C@@H]3O)[C@H](O)[C@@H](O)[C@@H]2O)[C@H](O)[C@@H](O)[C@H]1O [Raffinose, D-(+) Raffinose pentahydrate]
- Average ZOI change (ENTR indicator strains): 10.33 mm
- inhibition by M18 of S. pneumoniae (S. pneumoniae D39; 0.5 to 10% w/v raffinose): increase in inhibition
- Zone of inhibition S. pneumoniae D39 (S. pneumoniae D39; Raffinose 1.7% wt): 3 mm
- Zone of inhibition S. pneumoniae D39 (S. pneumoniae D39; Raffinose 1.7% wt, pH adjusted): 12 mm
- Zone of inhibition S. pneumoniae D39 (S. pneumoniae D39; Raffinose 2.5% wt): 10 mm
- Zone of inhibition S. pneumoniae D39 (S. pneumoniae D39; Raffinose 2.5% wt, pH adjusted): 11 mm
- Zone of inhibition S. pneumoniae D39 (S. pneumoniae D39; Raffinose 3.3% wt): 7 mm
- Zone of inhibition S. pneumoniae D39 (S. pneumoniae D39; Raffinose 3.3% wt, pH adjusted): 13 mm
- Zone of inhibition S. pneumoniae D39 (S. pneumoniae D39; Raffinose 5% wt): 2 mm
- Zone of inhibition S. pneumoniae D39 (S. pneumoniae D39; Raffinose 5% wt, pH adjusted): 12 mm
- Zone of inhibition S. pneumoniae D39 (S. pneumoniae D39; Raffinose 10% wt): 1 mm
- Zone of inhibition S. pneumoniae D39 (S. pneumoniae D39; Raffinose 10% wt, pH adjusted): 11 mm
- sensitivity of S. aureus A222 to M18 (S. aureus A222; [2]): sensitive
- Zone of inhibition S. aureus A222 (S. aureus A222; Raffinose 1.7% wt): 20 mm
- Zone of inhibition S. aureus A222 (S. aureus A222; Raffinose 1.7% wt, pH adjusted): 17 mm
- Zone of inhibition S. aureus A222 (S. aureus A222; Raffinose 2.5% wt): 20 mm
- Zone of inhibition S. aureus A222 (S. aureus A222; Raffinose 2.5% wt, pH adjusted): 18 mm
- Zone of inhibition S. aureus A222 (S. aureus A222; Raffinose 3.3% wt): 18 mm
- Zone of inhibition S. aureus A222 (S. aureus A222; Raffinose 3.3% wt, pH adjusted): 17 mm
- Zone of inhibition S. aureus A222 (S. aureus A222; Raffinose 5% wt): 16 mm
- Zone of inhibition S. aureus A222 (S. aureus A222; Raffinose 5% wt, pH adjusted): 13 mm
- Zone of inhibition S. aureus A222 (S. aureus A222; Raffinose 10% wt): 0 mm
- Zone of inhibition S. aureus A222 (S. aureus A222; Raffinose 10% wt, pH adjusted): 0 mm
- sensitivity of S. mutans OMZ175 to M18 (S. mutans OMZ175; 0.5, 1.25, 2.5, and 5% w/v raffinose added): sensitive
- Zone of inhibition S. mutans OMZ175 (S. mutans OMZ175; Raffinose 1.7% wt): 22 mm
- Zone of inhibition S. mutans OMZ175 (S. mutans OMZ175; Raffinose 1.7% wt, pH adjusted): 21 mm
- Zone of inhibition S. mutans OMZ175 (S. mutans OMZ175; Raffinose 2.5% wt): 20 mm
- Zone of inhibition S. mutans OMZ175 (S. mutans OMZ175; Raffinose 2.5% wt, pH adjusted): 19 mm
- Zone of inhibition S. mutans OMZ175 (S. mutans OMZ175; Raffinose 3.3% wt): 21 mm
- Zone of inhibition S. mutans OMZ175 (S. mutans OMZ175; Raffinose 3.3% wt, pH adjusted): 17 mm
- Zone of inhibition S. mutans OMZ175 (S. mutans OMZ175; Raffinose 5% wt): 19 mm
- Zone of inhibition S. mutans OMZ175 (S. mutans OMZ175; Raffinose 5% wt, pH adjusted): 16 mm
- Zone of inhibition S. mutans OMZ175 (S. mutans OMZ175; Raffinose 10% wt): 0 mm
- Zone of inhibition S. mutans OMZ175 (S. mutans OMZ175; Raffinose 10% wt, pH adjusted): 0 mm
- sensitivity of S. constellatus T-29 to M18 (S. constellatus T29; [2]): sensitive
- Zone of inhibition S. constellatus T29 (S. constellatus T29; Raffinose 1.7% wt): 22 mm
- Zone of inhibition S. constellatus T29 (S. constellatus T29; Raffinose 1.7% wt, pH adjusted): 17 mm
- Zone of inhibition S. constellatus T29 (S. constellatus T29; Raffinose 2.5% wt): 18 mm
- Zone of inhibition S. constellatus T29 (S. constellatus T29; Raffinose 2.5% wt, pH adjusted): 16 mm
- Zone of inhibition S. constellatus T29 (S. constellatus T29; Raffinose 3.3% wt): 18 mm
- Zone of inhibition S. constellatus T29 (S. constellatus T29; Raffinose 3.3% wt, pH adjusted): 17 mm
- Zone of inhibition S. constellatus T29 (S. constellatus T29; Raffinose 5% wt): 16 mm
- Zone of inhibition S. constellatus T29 (S. constellatus T29; Raffinose 5% wt, pH adjusted): 14 mm
- Zone of inhibition S. constellatus T29 (S. constellatus T29; Raffinose 10% wt): 12 mm
- Zone of inhibition S. constellatus T29 (S. constellatus T29; Raffinose 10% wt, pH adjusted): 0 mm
- sensitivity of S. saprophyticus ATCC 15305 to M18 [1, 2]: sensitive
- Zone of inhibition S. saprophyticus ATCC 15305 ([1]; Raffinose 1.7% wt): 16 mm
- Zone of inhibition S. saprophyticus ATCC 15305 ([1]; Raffinose 1.7% wt, pH adjusted): 15 mm
- Zone of inhibition S. saprophyticus ATCC 15305 ([1]; Raffinose 2.5% wt): 17 mm
- Zone of inhibition S. saprophyticus ATCC 15305 ([1]; Raffinose 2.5% wt, pH adjusted): 15 mm
- Zone of inhibition S. saprophyticus ATCC 15305 ([1]; Raffinose 3.3% wt): 17 mm
- Zone of inhibition S. saprophyticus ATCC 15305 ([1]; Raffinose 3.3% wt, pH adjusted): 14 mm
- Zone of inhibition S. saprophyticus ATCC 15305 ([1]; Raffinose 5% wt): 14 mm
- Zone of inhibition S. saprophyticus ATCC 15305 ([1]; Raffinose 5% wt, pH adjusted): 12 mm
- Zone of inhibition S. saprophyticus ATCC 15305 ([1]; Raffinose 10% wt): 0 mm
- Zone of inhibition S. saprophyticus ATCC 15305 ([1]; Raffinose 10% wt, pH adjusted): 0 mm

From US20240390434A1, “PROBIOTIC ENHANCERS AND USES THEREOF” (Blis Technologies Limited, priority 2021, published 2024)
